Measurements: patent US20050004070A1, “Anti-infectious carbohydrates” (priority 2001, published 2005)
“Also recorded” adds a separate entry of the source.

test system: listeria bacteria, in particular Listeria monocytogenes; experiment: Invasion and infection of mammal cells by listeria bacteria; format: cell-based; details: no method or numbers given

Molecule	inhibitory action against listeria bacteria (invasion and infection of mammal cells)
CC(=O)N[C@H]1[C@H](O[C@H]2[C@@H](O)[C@@H](CO)O[C@@H](O[C@@H]([C@H](O)[C@@H](O)C=O)[C@H](O)CO)[C@@H]2O)O[C@H](CO)[C@@H](O[C@@H]2O[C@@H](C)[C@@H](O)[C@@H](O)[C@@H]2O)[C@@H]1O[C@@H]1O[C@H](CO)[C@H](O)[C@H](O)[C@H]1O [LNFP II]	did not shown any such action
LNFP III	did not shown any such action
lacto-N-fucopentaose I [LNFP I]	particularly strong inhibitory effect; also recorded: strong, yet dose-dependant inhibitory action
